Assay results reported in ChEMBL document CHEMBL1201862, “PubChem BioAssay data set” (2004).
Active and inactive are the calls of the source.

What was measured:
[1] = target: Protein-tyrosine kinase 2-beta (Homo sapiens, UniProt Q14289);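 further: potency of inhibitors of PYK2 kinase phosphorylation of poly-GT substrate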
[2] = Luminescence Cell-Based Dose Confirmation HTS to Identify Inhibitors of Polyadenylation.; type: functional
[3] = target: Luciferin 4-monooxygenase (Photinus pyralis, UniProt P08659); assay: inhibition of purified Photinus pyralis luciferase – biochemical, luminescence, dose response (AID 1891)
[4] = Luminescence Cell-Based Dose Confirmation HTS to Identify Inhibitors of Platelet Dense Granule Release. [Related pubchem assays: 1663 (Primary HTS), 1678 (Summary of Project)]; type: functional
[5] = target: T1, Protein skinhead-1 (Caenorhabditis elegans, UniProt P34707); type: functional
T1 sequence (P34707 whole entry): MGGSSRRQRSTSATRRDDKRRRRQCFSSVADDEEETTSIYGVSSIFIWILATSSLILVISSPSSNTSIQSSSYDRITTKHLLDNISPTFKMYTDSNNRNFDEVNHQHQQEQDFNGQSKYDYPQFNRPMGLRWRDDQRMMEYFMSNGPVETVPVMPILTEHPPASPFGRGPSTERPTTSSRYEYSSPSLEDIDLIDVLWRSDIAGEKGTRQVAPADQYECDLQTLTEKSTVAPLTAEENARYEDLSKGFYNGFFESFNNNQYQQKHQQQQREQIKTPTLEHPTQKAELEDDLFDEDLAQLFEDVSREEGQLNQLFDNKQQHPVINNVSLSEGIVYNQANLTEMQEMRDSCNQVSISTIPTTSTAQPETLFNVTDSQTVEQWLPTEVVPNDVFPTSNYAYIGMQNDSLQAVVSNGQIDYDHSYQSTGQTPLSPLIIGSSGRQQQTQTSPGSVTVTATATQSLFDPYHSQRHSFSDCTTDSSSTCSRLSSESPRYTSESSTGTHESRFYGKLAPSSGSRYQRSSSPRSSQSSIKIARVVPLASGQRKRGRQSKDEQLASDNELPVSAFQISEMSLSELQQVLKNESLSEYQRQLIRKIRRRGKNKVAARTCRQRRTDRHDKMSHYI

[6] = Luminescence-based cell-based high throughput dose response assay to identify activators of the DAF-12 from the parasite S. stercoralis (ssDAF-12).; type: functional
[7] = target: T2, Oxysterols receptor LXR-beta (Homo sapiens, UniProt P55055); assay: LXR agonists, Gal4 luciferase reporter, dose response, counter-screen for ssDAF-12 agonist project, cell-based, luminescence, HEK293, S. stercoralis campaign (AID 720737); type: functional; conditions: read-out: IC50 (the source's name)
T2 sequence (P55055 whole entry): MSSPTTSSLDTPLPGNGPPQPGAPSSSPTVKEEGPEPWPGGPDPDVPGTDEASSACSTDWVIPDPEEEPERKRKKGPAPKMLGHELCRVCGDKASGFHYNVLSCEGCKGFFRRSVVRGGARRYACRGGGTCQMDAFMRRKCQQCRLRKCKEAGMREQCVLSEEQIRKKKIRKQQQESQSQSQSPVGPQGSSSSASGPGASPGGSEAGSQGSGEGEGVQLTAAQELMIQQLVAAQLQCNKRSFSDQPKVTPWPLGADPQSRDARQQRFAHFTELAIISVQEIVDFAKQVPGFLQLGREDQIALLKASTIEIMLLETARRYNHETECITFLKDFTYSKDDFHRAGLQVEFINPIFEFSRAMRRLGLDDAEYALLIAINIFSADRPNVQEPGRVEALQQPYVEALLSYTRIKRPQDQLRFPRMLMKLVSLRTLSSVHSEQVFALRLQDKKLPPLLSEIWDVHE

[8] = target: T2, Oxysterols receptor LXR-beta; type: functional, cell-based
[9] = cells
[10] = M. tuberculosis H37Rv growth inhibitors, H37Rv strain (AID 1626); type: functional
[11] = target: Prothrombin (Homo sapiens, UniProt P00734); assay: Thrombin 1536 HTS Dose Response Confirmation. [Related pubchem assays: 1046 (Thrombin 1536 HTS; hits were confirmed in this assay)]; type: functional
[12] = A549 cell cytotoxicity, dose response, cytotoxicity control, plate reader, cherry-pick, antagonist series (AID 743412); type: functional, cell-based
[13] = toxicity toward HepG2 liver cells – cell-based, plate reader, cherry-pick, antagonist series, cytotoxicity control, dose response (AID 743416); type: functional
[14] = blockade of melanocortin 4 receptor signaling – cell-based, plate reader, cherry pick, counter-screen for LGR2 antagonist project, dose response (AID 743444); type: functional;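 further: transfected HEK 293 cells stimulated with alpha-MSH peptide; potency of inhibitors of the alpha-MSH evoked signal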
[15] = viability loss in HEK293 cells – cell-based, plate reader, cherry-picked samples, cytotoxicity control, dose response (AID 743446); type: functional
[16] = target: E3 ubiquitin-protein ligase Mdm2 (Homo sapiens, UniProt Q00987); assay: MDM2-luc reporter signal enhancers, multi-concentration potency testing, MDM2 ubiquitin-protein ligase inhibitor program, whole-cell format, luminescence detection, 384-well microplate (AID 1394); type: functional;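 further: MDM2 E3 inhibitors raise luminescence so EC50 is for signal enhancement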
[17] = target: Leucine aminopeptidase (Plasmodium falciparum 3D7, UniProt Q8IL11); assay: P. falciparum M17LAP inhibitors, primary screen, biochemical, fluorogenic H-Leu-NHMec substrate, 1536-well (AID 1619); type: functional
[18] = system: Vero; assay: mammalian cell viability reduction – secondary assay, cytotoxicity control for West Nile virus antiviral project, dose response (AID 1650); type: functional; conditions: Chlorocebus sabaeus
[19] = system: INS1; assay: INS-1E survival protection against cytokine death – cell-based, luminescence, retest, dose response (AID 449756); type: functional; conditions: Rattus norvegicus;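 further: cell death triggered by IL-1 beta plus TNF-alpha plus IFN-gamma mixture; protective hits raise ATP signal compared with cytokine alone wells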
[20] = Luminescence Cell-Based Dose Confirmation HTS to Identify Activators of 5'UTR Stem-Loop Driven Alpha-Synuclein mRNA Translation in H4 Neuroglioblastoma Cells. [Related pubchem assays: 1829 (Project Summary), 1814 (Primary HTS)]; type: functional
[21] = Luminescence Cell-Based Dose Response HTS to Identify Activators of Luciferase Translation or Activity in H4 […] Cells. [Related pubchem assays: 1829 (Project Summary), 1814 (Primary HTS)]; type: functional
[22] = system: H4; assay: Luminescence Cell-Based Dose Response HTS to Identify Activators of 5'UTR Stem-Loop Driven Prion Protein mRNA Translation in H4 Neuroglioblastoma Cells. [Related pubchem assays: 1829 (Project Summary), 1814 (Primary HTS)]; type: functional; conditions: Homo sapiens
[23] = target: T3, Mannose-6-phosphate isomerase (Homo sapiens, UniProt P34949); assay: MPI enzyme activity inhibition – biochemical, fluorescence intensity, coupled assay, primary screen (AID 1209)
T3 sequence (P34949 whole entry): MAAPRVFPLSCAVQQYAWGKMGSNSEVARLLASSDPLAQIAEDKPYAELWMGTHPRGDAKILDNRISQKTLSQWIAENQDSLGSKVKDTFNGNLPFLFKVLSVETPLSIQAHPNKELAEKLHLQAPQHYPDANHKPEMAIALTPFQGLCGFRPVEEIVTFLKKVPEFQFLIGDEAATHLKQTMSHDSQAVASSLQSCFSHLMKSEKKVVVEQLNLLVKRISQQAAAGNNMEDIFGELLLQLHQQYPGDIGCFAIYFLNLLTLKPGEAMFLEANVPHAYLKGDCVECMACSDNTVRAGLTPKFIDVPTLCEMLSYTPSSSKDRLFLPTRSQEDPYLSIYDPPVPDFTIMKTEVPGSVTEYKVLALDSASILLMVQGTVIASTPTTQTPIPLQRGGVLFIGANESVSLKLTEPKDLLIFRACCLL

[24] = Fluorescence Cell-Based Dose Response to Identify Inhibitors of Thrombin Receptor-Activating Peptide SFLLRN-Mediated P-Selectin Induction on Platelets. [Related pubchem assays: 1663 (Primary HTS), 1889 (retest at dose ), 1891 (counterscreen), 1678 (Project Summary)]; type: functional
[25] = system: BJ; assay: growth inhibition of engineered Ras-driven BJ cells – cell-based, alamar blue fluorescence, cherrypicked samples, dose response (AID 2631); type: functional; conditions: Homo sapiens;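 further: confirmatory dose-response assay in RAS-dependent BJ fibroblasts engineered with TERT, LT and ST, with cytotoxicity read by fluorescence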
[26] = target: Ephrin type-A receptor 4 (Mus musculus, UniProt Q03137); assay: EphA4 ligand-binding antagonists – biochemical, colorimetric, mouse EphA4, primary screen (AID 689); type: functional
[27] = target: T4, Estrogen receptor (Homo sapiens, UniProt P03372); assay: ERα coactivator recruitment enhancers – biochemical, TR-FRET, ERα LBD, dose response (AID 737)
T4 sequence (P03372 whole entry): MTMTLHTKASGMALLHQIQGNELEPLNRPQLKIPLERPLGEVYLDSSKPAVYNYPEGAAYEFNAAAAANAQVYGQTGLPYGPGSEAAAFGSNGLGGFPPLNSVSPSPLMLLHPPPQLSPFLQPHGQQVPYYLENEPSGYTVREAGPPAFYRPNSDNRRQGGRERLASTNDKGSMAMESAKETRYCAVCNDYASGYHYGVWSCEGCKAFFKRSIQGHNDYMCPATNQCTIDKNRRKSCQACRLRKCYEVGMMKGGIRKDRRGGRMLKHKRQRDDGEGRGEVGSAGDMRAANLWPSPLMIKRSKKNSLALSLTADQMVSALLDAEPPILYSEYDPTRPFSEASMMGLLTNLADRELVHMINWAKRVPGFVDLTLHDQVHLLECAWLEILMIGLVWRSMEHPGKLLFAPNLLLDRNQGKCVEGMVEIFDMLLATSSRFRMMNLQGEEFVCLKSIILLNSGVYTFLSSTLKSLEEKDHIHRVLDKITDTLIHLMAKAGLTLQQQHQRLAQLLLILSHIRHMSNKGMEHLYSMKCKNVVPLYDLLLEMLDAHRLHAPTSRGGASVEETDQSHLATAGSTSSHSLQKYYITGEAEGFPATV

[28] = viability loss in THP-1 monocytes – THP-1 cells, cytotoxicity control for Vif-APOBEC3G degradation inhibitor project, dose response (AID 1117359); type: functional; conditions: THP-1
[29] = growth inhibition of yeast DHODH-expressing 3D7 parasites – SYBR Green, dry powder samples, dose response (AID 1159570); type: functional, cell-based;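 further: parasite growth measured after 72 hours of compound exposure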
[30] = toxicity to human HepG2 hepatoma cells – cell-based, plate reader, dry powder samples, cytotoxicity control, dose response (AID 1159569); type: functional;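 further: inhibitor potency with signal falling toward the positive control level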
[31] = P. falciparum Dd2 growth inhibitors, dose response, SYBR Green, cherry-picked samples (AID 1159567); type: functional, cell-based
[32] = Dd2 malaria parasite growth inhibition potency – SYBR Green, dry powder samples, dose response (AID 1159566); type: functional, cell-based;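 further: potency for growth inhibition with lower SYBR green DNA signal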
[33] = growth inhibition of PfATP4-mutant resistant parasites – NITD609-resistant line, SYBR Green, dry powder, dose response (AID 1159571); type: functional, cell-based;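 further: parasites synchronized at ring stage by sorbitol before testing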
[34] = toxicity to human hepatoma HepG2 cells – cell-based, cherry-picked samples, cytotoxicity control, dose response (AID 1159577); type: functional

Luciferin 4-monooxygenase, sequence (P08659 whole entry): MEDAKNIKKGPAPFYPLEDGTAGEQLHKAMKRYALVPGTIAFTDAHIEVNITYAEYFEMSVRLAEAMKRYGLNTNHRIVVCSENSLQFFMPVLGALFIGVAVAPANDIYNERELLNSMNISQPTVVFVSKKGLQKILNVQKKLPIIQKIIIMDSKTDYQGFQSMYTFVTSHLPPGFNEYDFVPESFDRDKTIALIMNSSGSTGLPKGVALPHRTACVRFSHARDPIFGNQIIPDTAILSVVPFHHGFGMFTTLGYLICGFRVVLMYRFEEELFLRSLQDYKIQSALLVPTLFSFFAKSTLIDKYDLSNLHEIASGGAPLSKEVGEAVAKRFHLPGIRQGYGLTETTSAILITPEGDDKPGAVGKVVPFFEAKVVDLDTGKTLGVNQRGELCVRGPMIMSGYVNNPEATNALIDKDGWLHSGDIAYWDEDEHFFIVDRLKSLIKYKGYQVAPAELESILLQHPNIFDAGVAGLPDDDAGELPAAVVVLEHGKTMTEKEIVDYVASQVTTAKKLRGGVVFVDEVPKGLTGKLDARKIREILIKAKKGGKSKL
E3 ubiquitin-protein ligase Mdm2, sequence (Q00987 whole entry): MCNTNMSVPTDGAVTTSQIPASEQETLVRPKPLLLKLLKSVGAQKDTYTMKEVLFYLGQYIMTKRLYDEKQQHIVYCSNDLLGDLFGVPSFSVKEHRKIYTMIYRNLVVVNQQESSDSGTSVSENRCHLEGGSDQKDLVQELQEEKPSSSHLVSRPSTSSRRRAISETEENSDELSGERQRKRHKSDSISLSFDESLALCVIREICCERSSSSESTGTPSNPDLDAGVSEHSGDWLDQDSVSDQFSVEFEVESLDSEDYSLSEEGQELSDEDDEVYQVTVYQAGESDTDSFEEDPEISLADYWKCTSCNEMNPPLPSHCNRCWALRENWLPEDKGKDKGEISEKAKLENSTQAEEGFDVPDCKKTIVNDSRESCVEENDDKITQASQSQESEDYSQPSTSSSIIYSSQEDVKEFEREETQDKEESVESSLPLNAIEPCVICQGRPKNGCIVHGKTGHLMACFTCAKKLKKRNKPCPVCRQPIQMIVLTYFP
Ephrin type-A receptor 4, sequence (Q03137 whole entry, the tested form may be a part): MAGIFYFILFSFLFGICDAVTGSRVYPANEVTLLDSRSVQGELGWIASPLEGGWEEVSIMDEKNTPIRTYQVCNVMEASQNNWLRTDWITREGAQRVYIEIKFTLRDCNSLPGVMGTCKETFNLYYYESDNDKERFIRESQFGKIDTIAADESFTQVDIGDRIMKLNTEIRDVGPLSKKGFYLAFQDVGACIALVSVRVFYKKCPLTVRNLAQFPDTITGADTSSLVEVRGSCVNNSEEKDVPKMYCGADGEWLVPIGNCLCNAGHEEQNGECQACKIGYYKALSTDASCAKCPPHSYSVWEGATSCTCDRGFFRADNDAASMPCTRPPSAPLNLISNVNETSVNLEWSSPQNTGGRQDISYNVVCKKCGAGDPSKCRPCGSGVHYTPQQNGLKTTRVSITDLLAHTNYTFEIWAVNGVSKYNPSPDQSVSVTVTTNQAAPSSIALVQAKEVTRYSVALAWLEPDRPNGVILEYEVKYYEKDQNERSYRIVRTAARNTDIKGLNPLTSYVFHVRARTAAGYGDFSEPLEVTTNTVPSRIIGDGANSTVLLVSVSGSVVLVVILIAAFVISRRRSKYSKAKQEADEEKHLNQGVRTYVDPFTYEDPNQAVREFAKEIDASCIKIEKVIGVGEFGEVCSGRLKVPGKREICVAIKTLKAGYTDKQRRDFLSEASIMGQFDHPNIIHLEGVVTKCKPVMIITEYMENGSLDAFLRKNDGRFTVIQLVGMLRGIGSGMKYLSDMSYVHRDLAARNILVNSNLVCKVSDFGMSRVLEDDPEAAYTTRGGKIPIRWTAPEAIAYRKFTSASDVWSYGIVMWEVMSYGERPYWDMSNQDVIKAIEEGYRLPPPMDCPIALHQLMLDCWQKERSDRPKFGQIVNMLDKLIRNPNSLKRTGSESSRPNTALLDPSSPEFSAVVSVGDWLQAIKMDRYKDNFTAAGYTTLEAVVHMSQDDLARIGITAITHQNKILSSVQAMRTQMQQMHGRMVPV
Leucine aminopeptidase, sequence (Q8IL11 whole entry): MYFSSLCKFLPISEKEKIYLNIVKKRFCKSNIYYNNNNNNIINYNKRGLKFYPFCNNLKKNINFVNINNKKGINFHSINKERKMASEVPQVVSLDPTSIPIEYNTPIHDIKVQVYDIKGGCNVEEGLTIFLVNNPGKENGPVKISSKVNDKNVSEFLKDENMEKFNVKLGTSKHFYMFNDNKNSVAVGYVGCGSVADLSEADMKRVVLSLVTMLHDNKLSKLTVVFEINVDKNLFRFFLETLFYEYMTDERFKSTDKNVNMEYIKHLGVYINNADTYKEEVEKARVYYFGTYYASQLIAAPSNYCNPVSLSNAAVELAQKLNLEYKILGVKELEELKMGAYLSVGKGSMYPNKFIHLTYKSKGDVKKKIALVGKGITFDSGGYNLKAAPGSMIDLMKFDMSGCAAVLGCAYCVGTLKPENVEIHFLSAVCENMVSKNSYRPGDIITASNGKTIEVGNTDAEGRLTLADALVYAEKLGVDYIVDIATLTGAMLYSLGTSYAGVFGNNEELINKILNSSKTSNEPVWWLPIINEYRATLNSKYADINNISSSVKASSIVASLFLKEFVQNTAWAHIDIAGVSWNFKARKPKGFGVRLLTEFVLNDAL
Protein-tyrosine kinase 2-beta, sequence (Q14289 whole entry): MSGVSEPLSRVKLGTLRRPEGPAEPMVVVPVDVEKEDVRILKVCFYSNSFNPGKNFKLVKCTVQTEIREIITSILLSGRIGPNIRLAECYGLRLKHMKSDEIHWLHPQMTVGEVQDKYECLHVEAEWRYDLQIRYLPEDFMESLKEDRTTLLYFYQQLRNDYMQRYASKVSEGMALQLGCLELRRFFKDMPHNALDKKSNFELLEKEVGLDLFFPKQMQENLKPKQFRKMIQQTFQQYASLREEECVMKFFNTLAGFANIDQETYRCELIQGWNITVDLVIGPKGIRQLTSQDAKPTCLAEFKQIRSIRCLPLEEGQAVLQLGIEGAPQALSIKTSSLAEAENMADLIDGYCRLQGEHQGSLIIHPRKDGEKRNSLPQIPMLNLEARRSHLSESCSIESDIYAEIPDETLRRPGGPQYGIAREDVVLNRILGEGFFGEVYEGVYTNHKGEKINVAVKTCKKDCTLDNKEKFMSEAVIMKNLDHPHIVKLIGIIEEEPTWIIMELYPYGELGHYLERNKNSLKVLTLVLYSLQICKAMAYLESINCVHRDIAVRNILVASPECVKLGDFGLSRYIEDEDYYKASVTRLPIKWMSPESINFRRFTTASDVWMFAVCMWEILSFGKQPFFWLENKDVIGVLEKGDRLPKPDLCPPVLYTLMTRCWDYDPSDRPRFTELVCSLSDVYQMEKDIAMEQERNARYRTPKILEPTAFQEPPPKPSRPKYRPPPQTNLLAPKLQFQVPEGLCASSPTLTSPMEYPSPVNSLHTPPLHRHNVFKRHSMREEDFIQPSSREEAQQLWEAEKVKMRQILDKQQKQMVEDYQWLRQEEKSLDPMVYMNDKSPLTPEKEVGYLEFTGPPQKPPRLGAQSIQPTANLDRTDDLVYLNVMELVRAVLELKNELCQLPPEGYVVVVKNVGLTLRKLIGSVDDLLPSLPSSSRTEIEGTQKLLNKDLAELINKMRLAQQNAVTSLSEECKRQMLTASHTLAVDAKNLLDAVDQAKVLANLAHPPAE

COCCN(Cc1ccccc1)P(=O)(O)c1ccccc1OCC(=O)O
IC50 [1]: 7.64 µM (active)

COC(=O)c1cc(C(=O)N2CCN(c3cccc(C)c3C)CC2)cc([N+](=O)[O-])c1
EC50 [2]: > 120 µM (not active)

COc1cccc(-c2nc(-c3cccs3)no2)c1
EC50 [3]: > 112 µM (not active) | EC50 [4]: > 112 µM (not active) | IC50 [5]: > 100 µM (inactive) | IC50 [6]: > 67.6 µM (inactive) | EC50 [7]: > 67.6 µM (inactive) | EC50 [8]: > 67.6 µM (inactive) | EC50 [9]: > 67.6 µM (inactive)

CC(=O)Nc1ccc(Nc2cc(C)nc3c(-c4ccccc4)c(C)nn23)cc1
IC50 [10]: > 100 µM (active)

Cn1c(=O)c(C(=O)NNC(=O)c2ccccc2Cl)c(O)c2ccccc21
EC50 [2]: > 120 µM (not active)

NC(=NOC(=O)c1ccccc1Cl)c1ccccc1
EC50 [7]: > 67.6 µM (inactive) | EC50 [8]: > 67.6 µM (inactive)

CSc1nc(-c2ccccc2)nn1C(=O)c1ccco1
IC50 [11]: 0.3 µM (active)

Cc1ccc2c(c1)C1CN(C)CCC1N2C(=O)c1cn(-c2ccccc2)nc1-c1ccccc1 (stereo not given)
IC50 [11]: 3.04 µM (active) | AC50 [12]: 36.4 µM (active) | AC50 [13]: > 52 µM (inactive) | AC50 [14]: 55.6 µM (active) | AC50 [15]: 35.3 µM (active)

O=C1NC(=O)c2cc(NC(=O)C3COc4ccccc4O3)ccc21 (stereo not given)
EC50 [16]: 6.75 µM (not active)

COc1ccc2oc(C)c(C(=O)NN)c2c1
IC50 [17]: 26.6 µM (active)

Cn1c(=O)[nH]c(=O)c2c1nc(N1CCN(C(c3ccccc3)c3ccccc3)CC1)n2CCO
CC50 [18]: 14.5 µM (active) | AC50 [19]: 6.24 µM (active)

Nc1[nH]ncc1-c1ccc(Cl)cc1
IC50 [17]: 38.2 µM (active)

Cc1cc(N=C(S)Nc2ccc(C)c(Cl)c2)[nH]n1
EC50 [20]: 8.11 µM (active) | EC50 [21]: 76.2 µM (active) | EC50 [22]: 14.8 µM (active) | IC50 [23]: > 50 µM (not active)

COc1ccccc1-n1cc(-c2ccc(Cl)cc2)nc1O
EC50 [3]: > 112 µM (not active) | EC50 [4]: 1.89 µM (active) | EC50 [24]: < 0.3 µM (active)

CCc1c(C)c(C#N)c2nc3ccccc3n2c1Cl
EC50 [16]: 9.98 µM (not active) | EC50 [25]: 0.443 µM (inconclusive)

COc1cccc(C2(CSc3nnc(-c4cc(OC)c(OC)c(OC)c4)o3)OCCO2)c1
IC50 [26]: > 100 µM (not active)

Cc1nn(-c2ccccc2)c2sc(C(=O)c3c(N)n(C)c(=O)n(C)c3=O)cc12
EC50 [27]: 12.6 µM (active)

CC(=O)Nc1ccc(NC(=O)c2ccc(C3SCC(=O)N3CCc3ccccc3)cc2)cc1 (stereo not given)
IC50 [10]: > 100 µM (active)

CCOC(=O)C1=C(C)N=c2s/c(=C/c3ccco3)c(=O)n2C1c1cccc(OC)c1 (stereo not given)
IC50 [26]: > 100 µM (not active) | CC50 [28]: > 40 µM (active)

COCc1cn([C@@H]2C[C@@H]3O[C@@H](CO)CC[C@@H]3O[C@@H]2CCc2ccc(-c3ccc(OC)cc3)cc2)nn1
AC50 [29]: 0.231 µM (active) | AC50 [30]: 43 µM (active) | AC50 [31]: 1.12 µM (active) | AC50 [32]: 0.362 µM (active) | AC50 [33]: 0.451 µM (active)

C[C@H](CO)N1C[C@H](C)[C@@H](CN(C)C(=O)c2ccc(F)cc2)Oc2ncc(/C=C/c3ccccc3)cc2C1=O
AC50 [29]: 2.68 µM (active) | AC50 [30]: 85.2 µM (active) | AC50 [31]: 1.63 µM (active) | AC50 [32]: 1.58 µM (active) | AC50 [33]: 1.65 µM (active)

O=S(=O)(c1ccc(-c2ccccc2)cc1)N1C[C@@H]2N[C@H](C1)[C@@H]2c1ccc(-c2ccccc2)cc1
AC50 [31]: 2.86 µM (active) | AC50 [34]: 16 µM (active)
